Data: patent US5175162A, “Thiophene compounds and their pharmaceutical uses” (Yoshitiomi Pharmaceutical Industries Ltd., priority 1989, dated 1992)

What was measured:
benzodiazepine receptors [1] = settings: U.S. Pat. No. 4,849,421; cited from earlier work
[2] = Effects on seizure induced by maximal electroshock (anti-MES action); type: in vivo, male ddY mice; settings: 1 hour before MES
Description: The test was carried out using groups of five male ddY mice. The animals were challenged with a maximal electroshock (MES, AC 2000 V, 12.5 mA, 0.2 sec) delivered through bilatesal corneal electrodes 1 hour after the oral or intraperitoneal administration of the test compounds. Antagonism of MES-induced seizure was defined as the absence of the tonic extention.

benzodiazepine receptors [3] = experiment: 3H-diazepam (3H-DZP) binding assay, displacement at benzodiazepine receptors; set-up: species or system Wistar rats (cerebral cortex); settings: tritiated diazepam 2 nM, 0° C., 20 min; read-out: Affinity for BZP receptors Ki
Description: ^3 H-DZP binding assay was carried out according to the previously described method in Life Science, vol. 20, 2101 (1977).
The crude cynaptosomal fraction prepared from the cerebral cortex of Wistar rats aged 9-10 weeks was suspended in 50 mM Tris-hydrochloric acid buffer (pH 7.4) containing 120 mM sodium chloride and 5 mM potassium chloride. These suspensions were used for the following experiment.
The reaction was started by the addition of synaptosomal suspension to the solution containing tritiated diazepam (final concentration is 2 nM) and a known concentration of test compounds at 0° C. for 20 min. The binding was stopped by the filtration under vacuum through Whatman GF/B filters and the filters were immediately washed with the above-mentioned buffer. The radioactivity on the filters was measured by a liquid scintillation counter.
The binding affinities of the compound of the present invention for benzodiazepine receptors are evaluated from its displacement ability for tritiated diazepam at its binding site, which is represented as Ki value (nM).

Anti-bicuculline action = type: in vivo, male ddY mice; settings: Mus musculus; (+) bicuculline 0.6 mg/kg i.v. 1 hour after oral administration; prevention of tonic extention; read-out: Antibicuculline effect ED50
Description: The anti-bicuculline action of the test compounds was done according to the method reported in Life Science, vol. 21, 1779 (1977).
The test was carried out using groups of 7-14 male ddY mice weighing 20-25 g. The animals were challenged with (+) bicuculline (0.6 mg/kg i.v.) 1 hour after the oral administration of the test compounds. The ED50 values were calculated by the probit method as the dose which prevent the tonic extention in half of the animals.

[4] = Antianxiety effect (Vogel type conflict test); type: in vivo, Wistar rats; settings: Rattus norvegicus, po; orally 1 hr before test; P<0.05 vs 0.5% MC control; read-out: Antianxiety effect MED (minimum effective dose)
From the text: The experimental procedure used modified the method of Vogel et al (1971). Wistar rats were used. They were deprived of water for 72 hr before the test. The rats were placed in a plexiglas conflict test box (light compartment: 38×38×20 cm, dark compartment: 10×10×20 cm). A water bottle with a stainless steel spout was fitted to the middle of the outside, so that the spout extended 3 cm into the box at a height of 10 cm above the grid floor. A drinkometer circuit (Ohara Inc., Nihon Koden) was connected with the spout and the number of licks were counted. The rat was placed into the apparatus where an electric shock (0.2-0.3 mA, 0.3 sec) was given once every 20th lick. After the rat received the first electric shock, the number of shocks were recorded during the subsequent 3 min test period. The test compounds were administered orally 1 hr before the test. The minimum effective dose (MED) was defined as the lowest dose producing a statistically significant difference between 0.5% MC-treated (control) and test drug treated punished responses (One-way ANOVA test; P<0.05).

| SMILES | Inhibitory rate (anti-MES) ([2]; 30 mg/kg i.p.) [%] | Ki (benzodiazepine receptors [3]) [pM] | ED50 (Anti-bicuculline action) [mg/kg] | other results |
| --- | --- | --- | --- | --- |
| O=c1cc2c(nn1-c1ccc(Cl)cc1)-c1ccccc1SCC2 [2-(4-chlorophenyl)-5,6-dihydro[1]benzothiepino[5,4-c]pyridazin-3(2H)-one] | – | – | – | activity against BZP receptors (benzodiazepine receptors [1]): partial agonistic activity |
| O=C1CC2CCSc3sccc3C2=NN1c1ccc(Cl)cc1 (centres unmarked) [Example 14] | 100 | – | – | Inhibitory rate (anti-MES) ([2]; 30 mg/kg p.o.): 40%; Inhibitory rate (anti-MES) ([2]; 100 mg/kg p.o.): 100% |
| CCc1cc2c(s1)SCCc1cc(=O)n(-c3ccc(Cl)cc3)nc1-2 [Example 22, 2-(4-chlorophenyl)-9-ethyl-5,6-dihydrothieno[2',3':2,3]thiepino[4,5-c]pyridazin-3(2H)-one] | – | 1800 | 0.49 | – |
| CCc1cc2c(s1)[S+]([O-])CCc1cc(=O)n(-c3ccc(Cl)cc3)nc1-2 (centres unmarked) [Example 25, 2-(4-chlorophenyl)-9-ethyl-5,6-dihydrothieno[2',3':2,3]thiepino[4,5-c]pyridazin-3(2H)-one 7-oxide] | 80 | 1400 | 0.66 | – |
| O=c1cc2c(nn1-c1ccc(Cl)cc1)-c1cc(Br)sc1[S+]([O-])CC2 (centres unmarked) [Example 26, 9-bromo-2-(4-chlorophenyl)-5,6-dihydrothieno[2',3':2,3]thiepino[4,5-c]pyridazin-3(2H)-one 7-oxide] | – | 1400 | 0.56 | – |
| CCc1cc2c(s1)S(=O)(=O)CCc1cc(=O)n(-c3ccc(Cl)cc3)nc1-2 [Example 28, 2-(4-Chlorophenyl)-9-ethyl-5,6-dihydrothieno[2',3':2,3]thiepino[4,5-c]pyridazin-3(2H)-one 7,7-dioxide] | – | 630 | 0.23 | minimal effective dose [4]: 2.5 mg/kg |
| CC(O)c1cc2c(s1)S(=O)(=O)CCc1cc(=O)n(-c3ccc(Cl)cc3)nc1-2 (centres unmarked) [Example 50, 2-(4-chlorophenyl)-9-(1-hydroxyethyl)-5,6-dihydrothieno[2',3':2,3]thiepino[4,5-c]pyridazin-3(2H)-one 7,7-dioxide] | – | 970 | 0.87 | – |
| CCc1cc2c(s1)SCCc1cc(=O)n(-c3ccc(OC)cc3)nc1-2 [Example 58, 9-ethyl-2-(4-methoxyphenyl)-5,6-dihydrothieno[2',3':2,3]thiepino[4,5-c]pyridazin-3(2H)-one] | – | 560 | 0.4 | – |
| CCc1cc2c(s1)S(=O)(=O)CCc1cc(=O)n(-c3ccc(OC)cc3)nc1-2 [Example 64, 9-Ethyl-2-(4-methoxyphenyl)-5,6-dihydrothieno[2',3':2,3]thiepino[4,5-c]pyridazin-3(2H)-one 7,7-dioxide] | – | 440 | 1.4 | – |
| O=c1cc2c(nn1-c1ccc(Cl)cc1)-c1cc(Br)sc1S(=O)(=O)CC2 [Example 65, 9-Bromo-2-(4-chlorophenyl)-5,6-dihydrothieno[2',3':2,3]thiepino[4,5-c]pyridazin-3(2H)-one 7,7-dioxide] | – | 120 | 1.4 | – |
| CCCc1cc2c(s1)SCCc1cc(=O)n(-c3ccc(Cl)cc3)nc1-2 [Example 69, 2-(4-Chlorophenyl)-9-propyl-5,6-dihydrothieno[2',3':2,3]thiepino[4,5-c]pyridazin-3(2H)-one] | 80 | – | – | – |
| CCCc1cc2c(s1)[S+]([O-])CCc1cc(=O)n(-c3ccc(Cl)cc3)nc1-2 (centres unmarked) [Example 70, 2-(4-Chlorophenyl)-9-propyl-5,6-dihydrothienol[2',3':2,3]thiepino[4,5-c]pyridazin-3(2H)-one 7-oxide] | – | 620 | 0.62 | – |
| CCCc1cc2c(s1)S(=O)(=O)CCc1cc(=O)n(-c3ccc(Cl)cc3)nc1-2 [Example 71, 2-(4-Chlorophenyl)-9-propyl-5,6-dihydrothieno[2',3':2,3]thiepino[4,5-c]pyridazin-3(2H)-one 7,7-dioxide] | 100 | – | – | – |
